Laboratory results: patent US11780826B2 (Amgen Inc., priority 2017, dated 2023)

System: Bovine cardiac myofibrils
Assay: In vitro model of dose-dependent myofibril ATPase modulation (AC1.4, pyruvate kinase/lactate dehydrogenase-coupled ATPase assay at pCa25)
Format: biochemical
Details: concentration at which ATPase activity was 1.4-fold higher than the bottom of the dose curve, mean of a minimum of two independent tests
In short: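 Bovine cardiac myofibrils, detergent-treated; 0.25-1.0 mg/ml. Buffer: K-PIPES 12 mM, MgCl2 2 mM, DTT 1 mM, BSA 0.1 mg/ml, pH 6.80, 22° C; Ca2+ set by EGTA/CaCl2. ATP 1 mM, NADH/PEP-coupled, A340. 4-parameter fit; n≥2.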

Structure (SMILES) | AC1.4 [µM]
CN(C)c1cccc(C(=O)N2CCC[C@@H]2C(=O)N[C@@H](c2ccc(C(F)(F)F)cc2F)C2CC2)c1 [Example 584, N-((R)-cyclopropyl(2-fluoro-4-(trifluoromethyl)phenyl)methyl)-1-(3-(dimethylamino)benzoyl)-D-prolinamide] | 3.397
N#CC1CN(S(=O)(=O)c2cc(F)cc(C(=O)N3CCC[C@@H]3C(=O)NCc3ccc(C(F)(F)F)cc3)c2)C1 [Example 53, 1-((3-((3-cyano-1-azetidinyl)sulfonyl)-5-fluorophenyl)carbonyl)-N-(4-(trifluoromethyl)benzyl)-D-prolinamide] | 0.0574
C[C@@H](NC(=O)[C@H]1CCCN1C(=O)c1cc(F)cc(S(=O)(=O)N2CC(C#N)C2)c1)c1ccc(C(F)(F)F)cc1 [Example 16, 1-((3-((3-cyano-1-azetidinyl)sulfonyl)-5-fluorophenyl)carbonyl)-N-((1R)-1-(4-(trifluoromethyl)phenyl)ethyl)-D-prolinamide] | 0.0238
COc1ccc(CNC(=O)[C@H]2CCCN2C(=O)[C@H]2CCCN(S(=O)(=O)N3CC(C#N)C3)C2)cc1C [Example 672, 1-(((3S)-1-((3-cyano-1-azetidinyl)sulfonyl)-3-piperidinyl)carbonyl)-N-(4-methoxy-3-methylbenzyl)-D-prolinamide] | 4.8355
N#CC1CN(S(=O)(=O)N2CCC[C@H](C(=O)N3CCC[C@@H]3C(=O)NCc3cccc(F)c3Cl)C2)C1 [Example 418, N-(2-chloro-3-fluorobenzyl)-1-(((3S)-1-((3-cyano-1-azetidinyl)sulfonyl)-3-piperidinyl)carbonyl)-D-prolinamide] | 1.5305
C[C@H](C(=O)N[C@H](C)c1ccc(C(F)(F)F)cc1F)N(C)C(=O)[C@@H]1CN(S(=O)(=O)N2CC(C#N)C2)CCO1 [Example 299, (2S)-4-((3-cyano-1-azetidinyl)sulfonyl)-N-((2R)-1-(((1R)-1-(2-fluoro-4-(trifluoromethyl)phenyl)ethyl)amino)-1-oxo-2-propanyl)-N-methyl-2-morpholinecarboxamide] | 0.7923
O=C(N[C@@H](c1cc(F)c(Cl)cc1F)C1CC1)[C@H]1C[C@H]2C[C@H]2N1C(=O)c1cc(C2CC2)ccn1 [Example 713, (1R,3R,5R)-N-((R)-(4-chloro-2,5-difluorophenyl)(cyclopropyl)methyl)-2-((4-cyclopropyl-2-pyridinyl)carbonyl)-2-azabicyclo[3.1.0]hexane-3-carboxamide] | 6.039
Cc1cc(Cl)ccc1CNC(=O)[C@H]1CCCN1C(=O)[C@H]1CCCN(S(=O)(=O)N2CC(C#N)C2)C1 [Example 119, N-(4-chloro-2-methylbenzyl)-1-(((3S)-1-((3-cyano-1-azetidinyl)sulfonyl)-3-piperidinyl)carbonyl)-D-prolinamide] | 0.1819
O=C(O[C@@H]1CC(C(=O)N[C@@H](c2cc(F)c(Cl)cc2F)C2COC2)N(C(=O)c2ccnc(C(F)F)c2)C1)c1ccnc(C(F)F)c1 (stereo partly drawn) [Example 476, (3R,5R)-5-(((R)-(4-chloro-2,5-difluorophenyl)(3-oxetanyl)methyl)carbamoyl)-1-((2-(difluoromethyl)-4-pyridinyl)carbonyl)-3-pyrrolidinyl2-(difluoromethyl)-4-pyridinecarboxylate] | 2.071
COc1cc(C(=O)N2[C@@H](C(=O)N[C@@H](c3cc(F)c(C(F)(F)F)cc3F)C3COC3)C[C@H]3C[C@H]32)ccn1 [Example 815, (1R,3R,5R)-N-((R)-(2,5-difluoro-4-(trifluoromethyl)phenyl)(oxetan-3-yl)methyl)-2-(2-methoxyisonicotinoyl)-2-azabicyclo[3.1.0]hexane-3-carboxamide] | 2.4
N#CC1CN(S(=O)(=O)c2cccc(C(=O)N3CCC[C@@H]3C(=O)N[C@H](CC3CC3)c3ccc(C(F)(F)F)cc3)c2)C1 [Example 1, 1-(3-((3-cyano-1-azetidinyl)sulfonyl)benzoyl)-N-((1R)-2-cyclopropyl-1-(4-(trifluoromethyl)phenyl)ethyl)-D-prolinamide] | 0.01405
C[C@H](C(=O)NCc1cccc(C(F)(F)F)c1)N(C)C(=O)c1cccc(S(=O)(=O)N2CC(C#N)C2)c1 [Example 455, 3-((3-cyano-1-azetidinyl)sulfonyl)-N-methyl-N-((1R)-1-methyl-2-oxo-2-((3-(trifluoromethyl)benzyl)amino)ethyl)benzamide] | 1.877
Cc1cncc(C(=O)N2[C@@H](C(=O)N[C@@H](c3cc(F)c(Cl)cc3F)C3COC3)C[C@H]3C[C@H]32)c1 [Example 695, (1R,3R,5R)-N-((R)-(4-chloro-2,5-difluorophenyl)(3-oxetanyl)methyl)-2-((5-methyl-3-pyridinyl)carbonyl)-2-azabicyclo[3.1.0]hexane-3-carboxamide] | 5.5132
COc1ccc(F)cc1CNC(=O)[C@H]1CCCN1C(=O)[C@H]1CCCN(S(=O)(=O)N2CC(C#N)C2)C1 [Example 700, (((3S)-1-((3-cyano-1-azetidinyl)sulfonyl)-3-piperidinyl)carbonyl)-N-(5-fluoro-2-methoxybenzyl)-D-prolinamide] | 5.588
CS(=O)(=O)c1cncc(C(=O)N2CC[C@H](C(F)(F)F)[C@H]2C(=O)N[C@@H](c2cc(F)c(C(F)(F)F)cc2F)C2CC2)c1 [Example 236, (3S)-N-((R)-cyclopropyl(2,5-difluoro-4-(trifluoromethyl)phenyl)methyl)-1-((5-(methylsulfonyl)-3-pyridinyl)carbonyl)-3-(trifluoromethyl)-L-prolinamide] | 0.5579
CCNc1ccc(C)cc1C(=O)N1C[C@H](O)C[C@@H]1C(=O)N[C@@H](c1cc(F)c(Cl)cc1F)C1COC1 [Example 34, (4R)-N-((R)-(4-chloro-2,5-difluorophenyl)(3-oxetanyl)methyl)-1-(2-(ethylamino)-5-methylbenzoyl)-4-hydroxy-D-prolinamide] | 0.0361
C[C@@H](NC(=O)[C@H]1CCCN1C(=O)[C@@H]1CN(S(=O)(=O)N2CC(C#N)C2)CCO1)c1ccc(Cl)cc1 [Example 291, N-((1R)-1-(4-chlorophenyl)ethyl)-1-(((2S)-4-((3-cyano-1-azetidinyl)sulfonyl)-2-morpholinyl)carbonyl)-D-prolinamide] | 0.756
CS(=O)(=O)c1cccc(C(=O)N2[C@@H](C(=O)N[C@@H](c3ccc(F)cc3F)C3COC3)C[C@H]3C[C@H]32)c1 [Example 728, (1R,3R,5R)-N-((R)-(2,4-difluorophenyl)(3-oxetanyl)methyl)-2-(3-(methylsulfonyl)benzoyl)-2-azabicyclo[3.1.0]hexane-3-carboxamide] | 6.701
Cc1ccc(F)c(CNC(=O)[C@H]2CCCN2C(=O)[C@H]2CCCN(S(=O)(=O)N3CC(C#N)C3)C2)c1 [Example 642, 1-(((3S)-1-((3-cyano-1-azetidinyl)sulfonyl)-3-piperidinyl)carbonyl)-N-(2-fluoro-5-methylbenzyl)-D-prolinamide] | 4.2755
N#CC1CN(S(=O)(=O)N2CCC[C@H](C(=O)N3CCC[C@@H]3C(=O)NCc3ccc(F)c(F)c3)C2)C1 [Example 221, 1-(((3S)-1-((3-cyano-1-azetidinyl)sulfonyl)-3-piperidinyl)carbonyl)-N-(3,4-difluorobenzyl)-D-prolinamide] | 0.4821
O=C(NCc1ccc(C(F)(F)F)cc1)[C@H]1CCCN1C(=O)[C@H]1CCCN(S(=O)(=O)N2CC(n3ccnc3)C2)C1 [Example 562, 1-(((3S)-1-((3-(1H-imidazol-1-yl)-1-azetidinyl)sulfonyl)-3-piperidinyl)carbonyl)-N-(4-(trifluoromethyl)benzyl)-D-prolinamide] | 3.025
N#CC1CN(S(=O)(=O)N2CCC[C@H](C(=O)N3CCC[C@@H]3C(=O)N[C@@H](CO)c3ccc(Cl)c(F)c3)C2)C1 [Example 441, N-((1R)-1-(4-chloro-3-fluorophenyl)-2-hydroxyethyl)-1-(((3S)-1-((3-cyano-1-azetidinyl)sulfonyl)-3-piperidinyl)carbonyl)-D-prolinamide] | 1.7265
CC(C)c1cc(C(=O)N2[C@@H](C(=O)N[C@@H](c3cc(F)c(Cl)cc3F)C3COC3)C[C@H]3C[C@H]32)ccn1 [Example 504, (1R,3R,5R)-N-((R)-(4-chloro-2,5-difluorophenyl)(3-oxetanyl)methyl)-2-((2-(2-propanyl)-4-pyridinyl)carbonyl)-2-azabicyclo[3.1.0]hexane-3-carboxamide] | 2.3635
O=C(NCc1ccc(C(F)(F)F)cc1)[C@H]1CCCN1C(=O)[C@H]1CCCN(S(=O)(=O)N2CC(OC(F)F)C2)C1 [Example 343, 1-(((3S)-1-((3-(difluoromethoxy)-1-azetidinyl)sulfonyl)-3-piperidinyl)carbonyl)-N-(4-(trifluoromethyl)benzyl)-D-prolinamide] | 0.9742
CC(C)[C@@H](NC(=O)[C@H]1CCCN1C(=O)c1cccc(S(=O)(=O)N2CC(C#N)C2)c1)c1ccc(C(F)(F)F)cc1F [Example 10, 1-(3-((3-cyano-1-azetidinyl)sulfonyl)benzoyl)-N-((1R)-1-(2-fluoro-4-(trifluoromethyl)phenyl)-2-methylpropyl)-D-prolinamide] | 0.02115
O=C(NCc1ccc(C(F)(F)F)cc1)[C@H]1CCCN1C(=O)[C@H]1CCCN(S(=O)(=O)C2CCOC2)C1 (stereo partly drawn) [Example 766, (2R)-1-((3S)-1-((tetrahydrofuran-3-yl)sulfonyl)piperidine-3-carbonyl)-N-(4-(trifluoromethyl)benzyl)pyrrolidine-2-carboxamide] | 7.933
O=C(N[C@@H](c1cc(F)c(Cl)cc1F)C1COC1)[C@H]1C[C@H]2C[C@H]2N1C(=O)c1cc(C(F)(F)F)ccn1 [Example 233, (1R,3R,5R)-N-((R)-(4-chloro-2,5-difluorophenyl)(3-oxetanyl)methyl)-2-((4-(trifluoromethyl)-2-pyridinyl)carbonyl)-2-azabicyclo[3.1.0]hexane-3-carboxamide] | 0.5241
